From PubChem BioAssay (NCI)
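Following 48 hours of exposure in 96-well plates, responses at five concentrations were used to interpolate endpoints linearly. GI50 is the concentration that inhibits growth by half. TGI is the concentration that stops growth completely.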

Columns and labels:
Test in all cases: NCI anticancer screen, dose series, 48 h
SF-539 CNS = system: SF-539 CNS
SN12C renal = system: SN12C renal
SK-MEL-2 melanoma = system: SK-MEL-2 melanoma
NCI-H226 lung = system: NCI-H226 lung
UACC-62 melanoma = system: UACC-62 melanoma
SR leukemia = system: SR leukemia
CAKI-1 renal = system: CAKI-1 renal
HOP-92 NSCLC = system: HOP-92 NSCLC
SK-MEL-5 melanoma = system: SK-MEL-5 melanoma
MDA-MB-435 = system: MDA-MB-435
IGROV1 ovarian = system: IGROV1 ovarian
HCT-15 colon = system: HCT-15 colon
EKVX NSCLC = system: EKVX NSCLC
OVCAR-8 ovarian = system: OVCAR-8 ovarian
NCI/ADR-RES ovarian = system: NCI/ADR-RES ovarian
SF-295 CNS = system: SF-295 CNS
UO-31 renal = system: UO-31 renal
RXF 393 renal = system: RXF 393 renal
ACHN renal = system: ACHN renal
SK-MEL-28 melanoma = system: SK-MEL-28 melanoma
A549 NSCLC = system: A549 NSCLC
MDA-N = system: MDA-N
HT29 colon = system: HT29 colon
PC-3 prostate = system: PC-3 prostate
MCF7 breast = system: MCF7 breast
TK-10 renal = system: TK-10 renal
UACC-257 melanoma = system: UACC-257 melanoma
T-47D breast = system: T-47D breast
HL-60(TB) leukemia = system: HL-60(TB) leukemia
OVCAR-5 ovarian = system: OVCAR-5 ovarian
SK-OV-3 ovarian = system: SK-OV-3 ovarian
SNB-19 CNS = system: SNB-19 CNS
MOLT-4 leukemia = system: MOLT-4 leukemia
K-562 leukemia = system: K-562 leukemia
HS 578T breast = system: HS 578T breast
COLO 205 colon = system: COLO 205 colon
OVCAR-4 ovarian = system: OVCAR-4 ovarian
BT-549 breast = system: BT-549 breast
U251 CNS = system: U251 CNS
MALME-3M melanoma = system: MALME-3M melanoma
M14 melanoma = system: M14 melanoma
A498 renal = system: A498 renal
NCI-H522 lung = system: NCI-H522 lung
RPMI-8226 leukemia = system: RPMI-8226 leukemia
DU-145 prostate = system: DU-145 prostate
NCI-H23 lung = system: NCI-H23 lung
NCI-H460 lung = system: NCI-H460 lung
OVCAR-3 ovarian = system: OVCAR-3 ovarian
KM12 colon = system: KM12 colon
SF-268 CNS = system: SF-268 CNS
SW-620 colon = system: SW-620 colon
LOX IMVI melanoma = system: LOX IMVI melanoma
MDA-MB-231 breast = system: MDA-MB-231 breast
HCT-116 colon = system: HCT-116 colon
SNB-75 CNS = system: SNB-75 CNS
HOP-62 NSCLC = system: HOP-62 NSCLC
HCC-2998 colon = system: HCC-2998 colon
786-0 renal = system: 786-0 renal
CCRF-CEM leukemia = system: CCRF-CEM leukemia

Structure (SMILES): CC[C@@]1(O)C(=O)NCc2c1cc1n(c2=O)Cc2cc3cc4c(cc3nc2-1)OCO4
- GI50 (SF-539 CNS): 0.374 µM
- TGI (SF-539 CNS): 4.57 µM
- GI50 (SN12C renal): 0.328 µM
- TGI (SN12C renal): 11.7 µM
- GI50 (SK-MEL-2 melanoma): 67.5 µM
- TGI (SK-MEL-2 melanoma): > 100 µM
- GI50 (NCI-H226 lung): 2 µM
- TGI (NCI-H226 lung): > 85.1 µM
- GI50 (UACC-62 melanoma): 0.243 µM
- TGI (UACC-62 melanoma): 29.4 µM
- GI50 (SR leukemia): < 0.0176 µM
- TGI (SR leukemia): 0.2 µM
- GI50 (CAKI-1 renal): 0.417 µM
- TGI (CAKI-1 renal): > 9.04 µM
- GI50 (HOP-92 NSCLC): 1.22 µM
- TGI (HOP-92 NSCLC): > 26.9 µM
- GI50 (SK-MEL-5 melanoma): 1.23 µM
- TGI (SK-MEL-5 melanoma): 27.8 µM
- GI50 (MDA-MB-435): 2.11 µM
- TGI (MDA-MB-435): > 100 µM
- GI50 (IGROV1 ovarian): 1.59 µM
- TGI (IGROV1 ovarian): 63.4 µM
- GI50 (HCT-15 colon): 8.58 µM
- TGI (HCT-15 colon): > 100 µM
- GI50 (EKVX NSCLC): 12.9 µM
- TGI (EKVX NSCLC): > 87.1 µM
- GI50 (OVCAR-8 ovarian): 0.391 µM
- TGI (OVCAR-8 ovarian): 6.99 µM
- GI50 (NCI/ADR-RES ovarian): 0.236 µM
- TGI (NCI/ADR-RES ovarian): 1.56 µM
- GI50 (SF-295 CNS): 0.148 µM
- TGI (SF-295 CNS): 25.7 µM
- GI50 (UO-31 renal): 1.48 µM
- TGI (UO-31 renal): > 33.1 µM
- GI50 (RXF 393 renal): 0.803 µM
- TGI (RXF 393 renal): > 100 µM
- GI50 (ACHN renal): 0.398 µM
- TGI (ACHN renal): > 13.2 µM
- GI50 (SK-MEL-28 melanoma): 45.1 µM
- TGI (SK-MEL-28 melanoma): > 100 µM
- GI50 (A549 NSCLC): 0.618 µM
- TGI (A549 NSCLC): > 73.4 µM
- GI50 (MDA-N): 3.23 µM
- TGI (MDA-N): > 100 µM
- GI50 (HT29 colon): 2.02 µM
- TGI (HT29 colon): 37.3 µM
- GI50 (PC-3 prostate): 2.38 µM
- TGI (PC-3 prostate): > 100 µM
- GI50 (MCF7 breast): 0.217 µM
- TGI (MCF7 breast): > 100 µM
- GI50 (TK-10 renal): 69.9 µM
- TGI (TK-10 renal): > 100 µM
- GI50 (UACC-257 melanoma): 14.1 µM
- TGI (UACC-257 melanoma): > 100 µM
- GI50 (T-47D breast): 0.842 µM
- TGI (T-47D breast): > 27.1 µM
- GI50 (HL-60(TB) leukemia): 0.0462 µM
- TGI (HL-60(TB) leukemia): 0.502 µM
- GI50 (OVCAR-5 ovarian): 9.39 µM
- TGI (OVCAR-5 ovarian): > 88.2 µM
- GI50 (SK-OV-3 ovarian): 1.5 µM
- TGI (SK-OV-3 ovarian): > 82.2 µM
- GI50 (SNB-19 CNS): 0.379 µM
- TGI (SNB-19 CNS): > 61.5 µM
- GI50 (MOLT-4 leukemia): 0.118 µM
- TGI (MOLT-4 leukemia): 0.414 µM
- GI50 (K-562 leukemia): 0.164 µM
- TGI (K-562 leukemia): > 100 µM
- GI50 (HS 578T breast): 94.1 µM
- TGI (HS 578T breast): > 100 µM
- GI50 (COLO 205 colon): 22.7 µM
- TGI (COLO 205 colon): > 100 µM
- GI50 (OVCAR-4 ovarian): 22.5 µM
- TGI (OVCAR-4 ovarian): 97.8 µM
- GI50 (BT-549 breast): 4.15 µM
- TGI (BT-549 breast): > 100 µM
- GI50 (U251 CNS): 0.408 µM
- TGI (U251 CNS): 12.9 µM
- GI50 (MALME-3M melanoma): 1.47 µM
- TGI (MALME-3M melanoma): 35.7 µM
- GI50 (M14 melanoma): 0.441 µM
- TGI (M14 melanoma): > 39.2 µM
- GI50 (A498 renal): 0.963 µM
- TGI (A498 renal): 8.73 µM
- GI50 (NCI-H522 lung): 0.517 µM
- TGI (NCI-H522 lung): 54.6 µM
- GI50 (RPMI-8226 leukemia): 0.293 µM
- TGI (RPMI-8226 leukemia): 9.02 µM
- GI50 (DU-145 prostate): 0.13 µM
- TGI (DU-145 prostate): 2.02 µM
- GI50 (NCI-H23 lung): 0.798 µM
- TGI (NCI-H23 lung): > 13.2 µM
- GI50 (NCI-H460 lung): 0.219 µM
- TGI (NCI-H460 lung): 16.9 µM
- GI50 (OVCAR-3 ovarian): 14.2 µM
- TGI (OVCAR-3 ovarian): > 95.5 µM
- GI50 (KM12 colon): 11.7 µM
- TGI (KM12 colon): > 100 µM
- GI50 (SF-268 CNS): 0.236 µM
- TGI (SF-268 CNS): > 30.7 µM
- GI50 (SW-620 colon): 0.352 µM
- TGI (SW-620 colon): > 26.3 µM
- GI50 (LOX IMVI melanoma): 0.296 µM
- TGI (LOX IMVI melanoma): 18.2 µM
- GI50 (MDA-MB-231 breast): > 48.2 µM
- TGI (MDA-MB-231 breast): > 100 µM
- GI50 (HCT-116 colon): 0.883 µM
- TGI (HCT-116 colon): 46 µM
- GI50 (SNB-75 CNS): 0.5 µM
- TGI (SNB-75 CNS): 3.57 µM
- GI50 (HOP-62 NSCLC): 0.235 µM
- TGI (HOP-62 NSCLC): 20.4 µM
- GI50 (HCC-2998 colon): 0.984 µM
- TGI (HCC-2998 colon): > 89.1 µM
- GI50 (786-0 renal): 0.672 µM
- TGI (786-0 renal): 14.4 µM
- GI50 (CCRF-CEM leukemia): < 0.0128 µM
- TGI (CCRF-CEM leukemia): 0.148 µM
